Key:
Parameters in all cases: key: −: no saccharide-transferred product was detected through transfer reaction to acceptor; ∀: a saccharide-transferred product was detected in an amount less than one percent through transfer reaction to acceptor; +: a saccharide-transferred product was detected in an amount over one percent but less than ten percent through transfer reaction to acceptor; ++: a saccharide-transferred product was detected in an amount over ten percent through transfer reaction to acceptor
[1] = test system: α-isomaltosylglucosaccharide-forming enzyme; test: Transfer-acceptor specificity, Enzyme of Strain C11; type: biochemical, Bacillus globisporus C11; conditions: acceptor 1.6%, PINE-DEX #100 donor 4%, one unit/g donor, 30° C., pH 6.0, 24 hours
Procedure: (§1) Using different saccharides, it was tested whether the saccharides were used as transferring-acceptors for the α-isomaltosylglucosaccharide-forming enzyme of the present invention. A solution of D-glucose, D-xylose, L-xylose, D-galactose, D-fructose, D-mannose, D-arabinose, D-fucose, D-psicose, L-sorbose, L-rhamnose, methyl-α-glucopyranoside, methyl-β-glucopyranoside, N-acetyl-glucosamine, sorbitol, trehalose, isomaltose, isomaltotriose, cellobiose, gentibiose, glycerol, maltitol, lactose, sucrose, α-cyclodextrin, β-cyclodextrin, γ-cyclodextrin, or L-ascorbic acid was prepared.
(§2) To each solution with a saccharide concentration of 1.6% was added “PINE-DEX #100”, a partial starch hydrolysate, as a saccharide donor, to give a concentration of 4%, and admixed with one unit/g saccharide donor, d.s.b., of either of purified specimens of α-isomaltosylglucosaccharide-forming enzyme from Bacillus globisporus C9 obtained by the method in Experiment 4-2, Bacillus globisporus C11 obtained by the method in Experiment 7-2, Bacillus globisporus N75 obtained by the method in Experiment 11-2, or Arthrobacter globiformis A19 obtained by the method in Experiment 15-2, and incubated at 30° C. and pH 6.0, except that pH 8.4 was used for the enzyme from Arthrobacter globiformis A19, for 24 hours. The reaction mixtures of the post-enzymatic reactions were analyzed on gas chromatography (abbreviated as “GLC” hereinafter) for monosaccharides and disaccharides as acceptors, and on HPLC for trisaccharides as acceptors to confirm whether these saccharides could be used as their transfer acceptors. In the case of performing GLC, the following apparatuses and conditions are used: GLC apparatus, “GC-16A” commercialized by Shimadzu Corporation, Tokyo, Japan; column, a stainless-steel column, 3 mm in diameter and 2 m in length, packed with 2% “SILICONE OV-17/[…]”, commercialized by GL Sciences Inc., Tokyo, Japan; carrier gas, nitrogen gas at a flow rate of 40 ml/min under temperature conditions of increasing from 160° C. to 320° C. at an increasing temperature rate of 7.5° C./min; and detection, a hydrogen flame ionization detector. In the case of HPLC analysis, the apparatuses and conditions used are: HPLC apparatus, “CCPD” commercialized by Tosoh Corporation, Tokyo, Japan; column, “ODS-AQ-303” commercialized by YMC Co., Ltd., Tokyo, Japan; eluent, water at a flow rate of 0.5 ml/min; and detection, a differential refractometer.

[2] = test system: α-isomaltosylglucosaccharide-forming enzyme; test: Transfer-acceptor specificity, Enzyme of Strain N75; type: biochemical, Bacillus globisporus N75; conditions: acceptor 1.6%, PINE-DEX #100 donor 4%, one unit/g donor, 30° C., pH 6.0, 24 hours
Procedure: as §1, §2

[3] = test system: α-isomaltosylglucosaccharide-forming enzyme; test: Transfer-acceptor specificity, Enzyme of Strain C9; type: biochemical, Bacillus globisporus C9; conditions: acceptor 1.6%, PINE-DEX #100 donor 4%, one unit/g donor, 30° C., pH 6.0, 24 hours
Procedure: as §1, §2

[4] = test system: α-isomaltosylglucosaccharide-forming enzyme; test: Transfer-acceptor specificity, Enzyme of Strain A19; type: biochemical, Arthrobacter globiformis A19; conditions: acceptor 1.6%, PINE-DEX #100 donor 4%, one unit/g donor, 30° C., pH 8.4, 24 hours
Procedure: as §1, §2

SMILES	Product of transferring reaction, Enzyme of Strain C11 [1]	Product of transferring reaction, Enzyme of Strain N75 [2]	Product of transferring reaction, Enzyme of Strain C9 [3]	Product of transferring reaction, Enzyme of Stain A19 [4]
O=C(CO)[C@@H](O)[C@H](O)[C@@H](O)CO [L-Sorbose]	+ (a saccharide-transferred product was detected in an amount over one percent but less than ten percent through transfer reaction to acceptor)	+ (a saccharide-transferred product was detected in an amount over one percent but less than ten percent through transfer reaction to acceptor)	+ (a saccharide-transferred product was detected in an amount over one percent but less than ten percent through transfer reaction to acceptor)	+ (a saccharide-transferred product was detected in an amount over one percent but less than ten percent through transfer reaction to acceptor)
O=C[C@@H](O)[C@H](O)[C@@H](O)CO [L-Xylose]	++ (a saccharide-transferred product was detected in an amount over ten percent through transfer reaction to acceptor)	++ (a saccharide-transferred product was detected in an amount over ten percent through transfer reaction to acceptor)	++ (a saccharide-transferred product was detected in an amount over ten percent through transfer reaction to acceptor)	+ (a saccharide-transferred product was detected in an amount over one percent but less than ten percent through transfer reaction to acceptor)
CO[C@H]1O[C@H](CO)[C@@H](O)[C@H](O)[C@H]1O [Methyl-α-glucopyranoside]	++ (a saccharide-transferred product was detected in an amount over ten percent through transfer reaction to acceptor)	++ (a saccharide-transferred product was detected in an amount over ten percent through transfer reaction to acceptor)	++ (a saccharide-transferred product was detected in an amount over ten percent through transfer reaction to acceptor)	++ (a saccharide-transferred product was detected in an amount over ten percent through transfer reaction to acceptor)
CO[C@@H]1O[C@H](CO)[C@@H](O)[C@H](O)[C@H]1O [Methyl-β-glucopyranoside]	++ (a saccharide-transferred product was detected in an amount over ten percent through transfer reaction to acceptor)	++ (a saccharide-transferred product was detected in an amount over ten percent through transfer reaction to acceptor)	++ (a saccharide-transferred product was detected in an amount over ten percent through transfer reaction to acceptor)	++ (a saccharide-transferred product was detected in an amount over ten percent through transfer reaction to acceptor)
CC(=O)N[C@H]1C(O)O[C@H](CO)[C@@H](O)[C@@H]1O (stereo partly drawn) [N-Acetyl-glucosamine]	+ (a saccharide-transferred product was detected in an amount over one percent but less than ten percent through transfer reaction to acceptor)	+ (a saccharide-transferred product was detected in an amount over one percent but less than ten percent through transfer reaction to acceptor)	+ (a saccharide-transferred product was detected in an amount over one percent but less than ten percent through transfer reaction to acceptor)	−
OC[C@@H](O)[C@@H](O)[C@H](O)[C@@H](O)CO [Sorbitol]	−	−	−	−
OC[C@H]1O[C@@H]2O[C@H]3[C@H](O)[C@@H](O)[C@@H](O[C@H]4[C@H](O)[C@@H](O)[C@@H](O[C@H]5[C@H](O)[C@@H](O)[C@@H](O[C@H]6[C@H](O)[C@@H](O)[C@@H](O[C@H]7[C@H](O)[C@@H](O)[C@@H](O[C@H]1[C@H](O)[C@H]2O)O[C@@H]7CO)O[C@@H]6CO)O[C@@H]5CO)O[C@@H]4CO)O[C@@H]3CO [α-Cyclodextrin]	−	−	−	−
OC[C@H]1O[C@@H]2O[C@H]3[C@H](O)[C@@H](O)[C@@H](O[C@H]4[C@H](O)[C@@H](O)[C@@H](O[C@H]5[C@H](O)[C@@H](O)[C@@H](O[C@H]6[C@H](O)[C@@H](O)[C@@H](O[C@H]7[C@H](O)[C@@H](O)[C@@H](O[C@H]8[C@H](O)[C@@H](O)[C@@H](O[C@H]1[C@H](O)[C@H]2O)O[C@@H]8CO)O[C@@H]7CO)O[C@@H]6CO)O[C@@H]5CO)O[C@@H]4CO)O[C@@H]3CO [β-Cyclodextrin]	−	−	−	−
OC[C@H]1O[C@@H]2O[C@H]3[C@H](O)[C@@H](O)[C@@H](O[C@H]4[C@H](O)[C@@H](O)[C@@H](O[C@H]5[C@H](O)[C@@H](O)[C@@H](O[C@H]6[C@H](O)[C@@H](O)[C@@H](O[C@H]7[C@H](O)[C@@H](O)[C@@H](O[C@H]8[C@H](O)[C@@H](O)[C@@H](O[C@H]9[C@H](O)[C@@H](O)[C@@H](O[C@H]1[C@H](O)[C@H]2O)O[C@@H]9CO)O[C@@H]8CO)O[C@@H]7CO)O[C@@H]6CO)O[C@@H]5CO)O[C@@H]4CO)O[C@@H]3CO [γ-Cyclodextrin]	−	−	−	−
